{
  "source": "patent US12023308B2",
  "about": "“Agents for reversing toxic proteinopathies” (THE BROAD INSTITUTE, INC., priority 2019, dated 2024)",
  "key": {"[1]": {"test_system": "N cells expressing P23H mutant rhodopsin", "test": "Cell death (DRAQ7) in N cells expressing P23H mutant rhodopsin", "type": "cell-based, human", "details": "5 μM, 72 hours", "experimental": "To study apoptosis and cell death in N and P cells, 384 well Cell Carrier Ultra plates (6057308, Perkin Elmer), pre-coated with 0.25 mg/mL Synthemax II SC Substrate (3535, Corning) were used. For UPR branch activation experiments (FIGS. 2B, 9I, 9J and 9G) N and P cells were treated as described in the corresponding figure legends. CellEvent Caspase-3/7 Green Detection Reagent (C10423, Thermo Fisher Scientific®) and DRAQ7 (DR71000, Biostatus) were used at 1:5000 to monitor apoptosis and cell death respectively. Cells were imaged daily during 4 days to monitor viability and image analysis was performed as described below. For rescue experiments, P cells were plated on 96 well Cell Carrier Ultra microplates (6055302, Perkin Elmer) at 30,000 cells/well and cultured for 24 hr. […]\nCaspase 3/7 activation and/or DRAQ7 staining were used to calculate the fraction of cells going through apoptosis and/or cell death, respectively. Single cells were first identified using the digital phase contrast channel and cell number was calculated. Fluorescence intensities were then measured and the threshold for Caspase 3/7 and DRAQ7 positive staining was determined. As an output, the fraction of live (neither caspase3/7 nor DRAQ7 signal detected), apoptotic (caspase3/7 positive) or dead cells (DRAQ7 positive) was calculated in each well at a particular time point."}, "in vivo": {"test": "in vivo", "details": "mouse", "experimental": "1) A pharmacokinetic study was performed by WuXi AppTec (Hong Kong) in fasted male 129S2/SvPasCrl mice (study #400565-20170331-MPK) to determine the oral bioavailability of BRD-4780. A single dose of BRD-4780 was administered at 3.0 mg/kg intravenously (i.v.) or 10.0 mg/kg orally (p.o) in a clear solution of 10% HP-β-CD in saline. Blood was collected serially from n=3 mice per dose group at eight time points post dose administration (0.25, 0.5, 1, 2, 4, 6, 8 and 24 hours) and plasma was obtained by centrifugation. Plasma drug concentration was determined by LC-MS/MS and reported as BRD-4780 ng/mL for plasma and ng/mg for kidney tissue, and plotted as the mean±standard deviation concentration (FIG. 11A). Standard pharmacokinetic parameters were calculated (FIG. 11B)."}, "[2]": {"test": "Liver microsomes stability", "type": "in vitro ADME"}, "ER stress and the UPR": {"test_system": "ER stress and the UPR", "test": "RNA-Seq pathway analysis of fs/+ mouse kidney lysates", "type": "in vivo", "details": "fs/+ mice, 50 mg/kg/day, 7 days", "experimental": "RNA was extracted from a sagittal section of a half-kidney. Kidney tissue was homogenized using tissue homogenizer (Tissue-Tearor™, BioSpec Products) in 1 mL of TRIzol™ Reagent (15596026, Thermo Fisher Scientific®). Following 5 min incubation, 0.2 mL chloroform (C2432-500ML, Sigma-Aldrich) was added, and samples were vigorously mixed for 30 sec, then centrifuged at 12,000×g at 4° C. for 15 min. The upper aqueous phase containing RNA was then vigorously mixed with 0.5 mL of isopropanol for 30 sec. After 10 min incubation at RT, the samples were centrifuged at 12,000×g at 4° C. for 10 min. The pellet was resuspended in 1 mL of 75% ethanol and centrifuged at 12,000×g 4° C. for 5 min. The RNA pellet was then air dried for 15 min, dissolved in 50 μL of Nuclease-Free Water (AM9937, Thermo Fisher Scientific®), treated with DNase I, Amplification Grade (18068015, Thermo Fisher Scientific®) following the manufacturer's protocol and assessed for yield and purity by NanoDrop™ 2000 (Thermo Fisher Scientific®).\nData processing and statistical analyses for all RNA-seq experiments were performed in RStudio—Version 1.0.153 as follows. First, bam files obtained from the Broad Institute sequencing platform were reverted to FASTQ files followed by alignment of paired end reads to the mm10 mouse or hg19 human reference genome using STAR. […]"}},
  "data": [
    {"smiles": "CC(C)[C@@H]1[C@H]2CC[C@H](C2)[C@H]1N", "note": "(racemic) [BRD-4780, 2-endo-amino-3-exo-isopropylbicyclo[2.2.1]heptane]", "values": [
      {"measurement": "viability of cells expressing P23H mutant", "setting": "[1]", "value": "significantly improved"},
      {"measurement": "bioavailability", "setting": "in vivo; male, 129S2/SvPasCrl", "value": 119, "unit": "%"},
      {"measurement": "oral bioavailability (in words)", "setting": "in vivo; po", "value": "excellent oral bioavailability"},
      {"measurement": "microsomal stability", "setting": "[2]", "value": "good microsomal and plasma stability"},
      {"measurement": "pathways changed in kidney bulk RNA-Seq", "setting": "ER stress and the UPR", "value": "downregulated pathways associated with ER stress and the UPR"}
    ]}
  ]
}
